The values that follow come from patent US20220016067A1, “NOVEL ANTI-INFLAMMATORY COMPOUND, PRODUCING METHOD AND USE THEREOF” (priority 2020, published 2022).

Assay type in all cases: cell-based
Data set [1] concerns RAW264.7 cells. The experiment in a line: Cytotoxicity test (Alamar blue) in RAW264.7 cells. As to conditions: 25, 50, 100, 200, 400 and 800 μM, 24 hours. As for the experimental part:
RAW264.7 cells are cultured in RPMI medium containing 10% fetal bovine serum, 0.2% sodium bicarbonate and 1% penicillin/streptomycin, and in a 5% CO2, 37° C. incubator. The cells are subcultured when a confluency of 70-80% is reached. RAW264.7 cells are inoculated in a 96-well plate at a density of 4×10^4 cells/well per well. After the cells are adhered for overnight incubation, Pineapplin PL6 at different concentrations (25, 50, 100, 200, 400 and 800 μM) or pineapple extract (3, 6, 12 mg/ml) is added to each well. The blank control group is treated with culture medium without the Pineapplin PL6 or pineapple extract After 24 hours of incubation, Alamar blue is used to test cytotoxicity of the Pineapplin PL6. The medium is removed, washed twice with PBS, and diluted 10 times with Alamar Blue reagent in the medium without FBS. After reaction in dark for 6 hours, the change in absorbance at a wavelength of 570 nm is measured by using an ELISA reader.

For data set [2], the system named is nitric oxide production induced by LPS in RAW264.7 macrophages. In words: LPS-induced NO production in RAW264.7 macrophages (Griess reagent). The settings on record: 200 μM and 400 μM, LPS 200 ng/ml, RAW264.7, 24 hours. How it is done:
RAW264.7 cells are inoculated in a 96-well plate at a density of 4×10^5 cells/well. After the cells are adhered overnight, 200 ng/ml LPS is added, the blank control group has no LPS added, and incubated at 5% CO2 and 37° C. for 24 hours. On the second day, different concentrations (50, 100, 200 and 400 μM) of Pineapplin PL6 are added to the wells. The blank control group is treated with LPS-free medium, and the blank control group is treated with PL6-free LPS medium. The cells are then cultured under the condition of 5% CO2 and 37° C. After 24 hours of incubation, 150 μl of medium for each group is collected.
A solution of 1% p-aminobenzene sulfonic acid dissolved in 5% phosphoric acid is prepared, and then mixed with 0.1% N-(1-naphthyl)ethylenediamine dihydrochloride at a ratio of 1:1 to form the Griess reagent. Solutions of sodium nitrite at concentrations of 1.5625 μM to 100 μM are prepared for making a standard curve. 150 μl of the collected medium is mixed with 50 μl of the Griess reagent, and reacted in a dark environment for 30 minutes. The change in absorbance at a wavelength of 555 nm is measured using an ELISA reader.
Background: The Griess reaction detects nitrite, a stable product of nitric oxide.

The subject of data set [3] is iNOS. In words: LPS-induced iNOS expression in RAW264.7 macrophage cells (Western blot). As to conditions: LPS 200 ng/ml, PL6 50-400 μM, 24 hours. How it is done: The effect of Pineapplin PL6 on the LPS-induced iNOS expression is tested in RAW264.7 macrophage cells. The iNOS/β-actin ratio is the relative expression level of iNOS and β-actin protein. The higher the expression level of iNOS, the more inflammation response occurred (as an inflammation index). RAW264.7 macrophage cells were pretreated with LPS (200 ng/ml) for 24 hours, then incubated with various concentrations (50, 100, 200 and 400 μM) of PL6 at 5% CO2 and 37° C. for 24 hours. The (−) control group is treated with LPS-free medium, and the (+) control group is treated with PL6-free LPS medium. The cell culture supernatant of each group is collected, then the protein concentration is calculated, and 30 μg of total protein is taken from each group for protein gel electrophoresis. […] The luminescence fluorescence digital analysis system (ImageQuant LAS 400 mini, GE Healthcare Life Sciences) is used for luminescence color development.
The data shown in FIG. 7 is the relative expression of iNOS protein to β-actin, which is calculated by a software, based on the values obtained from the luminescence color film using scanning optical density method and standardized to β-actin protein.

In data set [4] the test system is NFκB. The experiment in a line: LPS-induced NFκB expression (p-p65/p65) in RAW264.7 macrophage cells (Western blot). The settings on record: LPS 200 ng/ml, PL6 50-400 μM, 24 hours. As for the experimental part: In this example, effect of Pineapplin PL6 on the LPS-induced NFκB expression is further tested in the RAW264.7 macrophage cell line. The value of p-p65/p65 is the relative expression level of NFκB protein. The higher the expression level of NFκB, the more inflammation response occurred (as an inflammation index). RAW264.7 macrophage cells were pretreated with LPS (200 ng/ml) for 24 hours, then incubated with various concentrations (50, 100, 200 and 400 μM) of PL6 for 24 hours at a condition of 5% CO2 and 37° C. The (−) control group is treated with LPS-free medium, and the (+) control group is treated with PL6-free LPS medium. The cell culture supernatant of each group is collected, then the protein concentration is calculated, and 30 μg of total protein is taken from each group for protein gel electrophoresis. […] After washing with PBST, the developing agent (Western Chemiluminescent HRP Substrate) is added, and the luminescence fluorescence digital analysis system (ImageQuant LAS 400 mini, GE Healthcare Life Sciences) is used for luminescence color development.
The data shown in FIG. 8 is the relative expression of NFκB protein p-p65/p65, which is calculated by a software, based on the values obtained from the luminescence color film using scanning optical density method and standardized to β-actin protein.
For orientation: Immunoblotting shows a protein as a band on a membrane.

For the substance “1,2,3-tricarboxylic acid-propyl-3-hydroxyphenol acrylate [Pineapplin PL6]”, the “cytotoxicity to RAW264.7 cells” value in data set [1] was “no obvious cytotoxicity”. The “production of nitric oxide induced by LPS” value in data set [2] is “significantly reduces”. Besides, in data set [3], the “iNOS protein expression (iNOS/β-actin)” value is “inhibiting iNOS protein expression”. Moreover, the “NFκB protein expression (p-p65/p65)” value in data set [4] is given as “inhibiting NFκB protein expression”.
